Data taken from patent US20220016060A1, “USE OF SODIUM 2-(3-PENTYLPHENYL)ACETATE IN THE TREATMENT OF ALSTRÖM SYNDROME” (LIMINAL BIOSCIENCES LIMITED, priority 2018, published 2022).
Values joined by “and” are separate entries in the source; they are usually repeats but may differ in a detail not shown here. Equal entries are not always repeated. “Also recorded” adds a separate entry of the source.

Tests used:
ALMS patients [1] = assay: Albumin-to-creatinine ratio (ACR); assay type: in vivo, human; settings: for Change from Baseline ACR, Mean (SD) / Change from Baseline ACR, Median / ACR: 800 mg daily oral; for ACR: individual subjects, listed as sodium 2-(3-pentylphenypacetate)
Procedure: The study was a Phase 2, single-centre, single-arm, open-label study of sodium 2-(3-pentylphenyl)acetate administered at a total daily oral dose of 800 mg for up to 72 weeks in subjects with ALMS was undertaken. The initial duration of the study was 24 weeks, and subjects were offered to enrol into an extension phase of 36 or 48 weeks. The schedule of study procedures for the enrolment, intervention, and assessments for participants is outlined in FIG. 1. Sodium 2-(3-pentylphenyl)acetate was formulated in soft gelatine capsules containing 200 mg of Sodium 2-(3-pentylphenyl)acetate (amorphous powder) per capsule, polyethylene glycol 400, National Formulary (NF), hydrochloric acid (for pH adjustment), and water. Albuminuria, the increase in excretion of urinary albumin, is marker of kidney damage and is assessed by measuring the ACR. The effect of sodium 2-(3-pentylphenyl)acetate on kidney histology/damage in ALMS patients was assessed by measuring the ACR.

ALMS patients [2] = assay: Enhanced Liver Fibrosis (ELF) blood test; assay type: in vivo, human; design: increase in ELF test score from baseline / Change from Baseline ELF Test, Median / ELF Test score: scale not given here
Procedure: The study was a Phase 2, single-centre, single-arm, open-label study of sodium 2-(3-pentylphenyl)acetate administered at a total daily oral dose of 800 mg for up to 72 weeks in subjects with ALMS was undertaken. The initial duration of the study was 24 weeks, and subjects were offered to enrol into an extension phase of 36 or 48 weeks. The schedule of study procedures for the enrolment, intervention, and assessments for participants is outlined in FIG. 1. Sodium 2-(3-pentylphenyl)acetate was formulated in soft gelatine capsules containing 200 mg of Sodium 2-(3-pentylphenyl)acetate (amorphous powder) per capsule, polyethylene glycol 400, National Formulary (NF), hydrochloric acid (for pH adjustment), and water. The effect of sodium 2-(3-pentylphenyl)acetate on liver histology in ALMS patients was also assessed using the Enhanced Liver Fibrosis (ELF™) blood test. The ELF™ Blood Test combines three serum biomarkers (Hyaluronic acid (HA), Procollagen III amino terminal peptide (PIIINP), and Tissue inhibitor of metalloproteinase 1 (TIMP-1)) which, when correlated, are able to identify a quantifiable level of liver fibrosis.

[3] = EP Week 12 (Week 36), N=10, 800 mg daily oral
[4] = EP Week 24 (Week 48), N=9, 800 mg daily oral
[5] = EP Week 36 (Week 60), N=8, 800 mg daily oral
[6] = Subject 826-001-001, 204-day break in treatment
[7] = Week 12, N=12, 800 mg daily oral
[8] = Week 24, N=12, 800 mg daily oral
[9] = individual subjects, EP Week 12 (Week 36), 800 mg daily oral

`CCCCCc1cccc(CC(=O)[O-])c1.[Na+]` [sodium 2-(3-pentylphenyl)acetate] was tested, and the “Change from Baseline ACR, Mean (SD)” value (ALMS patients [1]; EP Week 12 (Week 36), N=10) was 6.19 (16.707) mg/mmol, the “Change from Baseline ACR, Median” value (ALMS patients [1]; EP Week 12 (Week 36), N=10) was 1.25 mg/mmol and the “Change from Baseline ACR, Mean (SD)” value (ALMS patients [1]; EP Week 24 (Week 48), N=10) was 13.30 (28.301) mg/mmol. The “Change from Baseline ACR, Median” value (ALMS patients [1]; EP Week 24 (Week 48), N=10) was 1.30 mg/mmol, the “Change from Baseline ACR, Mean (SD)” value (ALMS patients [1]; EP Week 36 (Week 60), N=9) was 21.32 (44.461) mg/mmol and the “Change from Baseline ACR, Median” value (ALMS patients [1]; EP Week 36 (Week 60), N=9) was 1.60 mg/mmol. The “increase in ACR from baseline” value (ALMS patients [1]; Subject 826-001-003, 32-day break in treatment) was 13.8 mg/mmol, the “increase in ACR from baseline” value (ALMS patients [1]; Subject 826-001-007, 32-day break in treatment) was 133.8 mg/mmol and the “increase in ACR from baseline” value (ALMS patients [1]; Subject 826-001-013, 30-day break in treatment) was 43.9 mg/mmol. The “Change from Baseline ACR, Mean (SD)” value (ALMS patients [1]; Week 12, N=12) was 10.08 (20.848) mg/mmol, the “Change from Baseline ACR, Median” value (ALMS patients [1]; Week 12, N=12) was 0.90 mg/mmol and the “Change from Baseline ACR, Mean (SD)” value (ALMS patients [1]; Week 24, N=11) was 4.96 (14.993) mg/mmol. The “Change from Baseline ACR, Median” value (ALMS patients [1]; Week 24, N=11) was 0.30 mg/mmol, the ACR (ALMS patients [1]; EP Week 12 (Week 36)) was 7.5 mg/mmol and 18.0 mg/mmol and 7.9 mg/mmol and 2.0 mg/mmol and 2.2 mg/mmol and 95.0 mg/mmol and <2.3 mg/mmol and 8.6 mg/mmol and 56.3 mg/mmol and 0.6 mg/mmol and the ACR (ALMS patients [1]; EP Week 24 (Week 48)) was 6.2 mg/mmol and 21.6 mg/mmol and 6.7 mg/mmol and 2.1 mg/mmol and 0.8 mg/mmol and 111.7 mg/mmol and 0.7 mg/mmol and 12.9 mg/mmol and 106.5 mg/mmol and <2.3 mg/mmol. For the same compound, the ACR (ALMS patients [1]; EP Week 36 (Week 60)) was 6.1 mg/mmol and 21.9 mg/mmol and 19.2 mg/mmol and <2.3 mg/mmol (2×) and 178.3 mg/mmol and 1.9 mg/mmol and 8.6 mg/mmol and 85.4 mg/mmol, the ACR (ALMS patients [1]; Week 12) was 4.3 mg/mmol and 22.5 mg/mmol and 24.3 mg/mmol and 14.5 mg/mmol and 0.4 mg/mmol and <2.3 mg/mmol (3×) and 89.2 mg/mmol and 15.1 mg/mmol and 102.9 mg/mmol and 15.6 mg/mmol and the ACR (ALMS patients [1]; Week 24) was 4.2 mg/mmol and 15.5 mg/mmol and 14.5 mg/mmol and 10.7 mg/mmol and 2.2 mg/mmol and 77.0 mg/mmol and <2.3 mg/mmol and 13.2 mg/mmol and 77.4 mg/mmol and 10.2 mg/mmol and 1.4 mg/mmol. The “subjects in whom ELF test score decreased from baseline” value (ALMS patients [2]; 6/12 subjects) was 50.0%, the “subjects in whom severity of liver fibrosis based on the ELF test was stable or improved from baseline” value (ALMS patients [2]; 10/12 subjects) was 83.3% and the “Change from Baseline ELF Test, Mean (SD)” value (ALMS patients [2]; [3]) was −0.24 (1.056). The “Change from Baseline ELF Test, Median” value (ALMS patients [2]; [3]) was −0.02, the “Change from Baseline ELF Test, Mean (SD)” value (ALMS patients [2]; [4]) was −0.22 (1.086) and the “Change from Baseline ELF Test, Median” value (ALMS patients [2]; [4]) was −0.13. For the same compound, the “Change from Baseline ELF Test, Mean (SD)” value (ALMS patients [2]; [5]) was −0.26 (1.193), the “Change from Baseline ELF Test, Median” value (ALMS patients [2]; [5]) was −0.03 and the “change in severity of liver fibrosis based on ELF test” value (ALMS patients [2]; [6]) was “increase in liver fibrosis from moderate to severe”. For the same compound, the “increase in ELF test score from baseline” value (ALMS patients [2]; [6]) was 1.36, the “increase in ELF test score from baseline” value (ALMS patients [2]; Subject 826-001-004, 30-day break in treatment) was 1.17 and the “Change from Baseline ELF Test, Mean (SD)” value (ALMS patients [2]; [7]) was 0.02 (1.023). For the same compound, the “Change from Baseline ELF Test, Median” value (ALMS patients [2]; [7]) was 0.24, the “Change from Baseline ELF Test, Mean (SD)” value (ALMS patients [2]; [8]) was −0.26 (0.933) and the “Change from Baseline ELF Test, Median” value (ALMS patients [2]; [8]) was 0.06. For the same compound, the “ELF Test score” value (ALMS patients [2]; [9]) was 9.13 and 8.68 and 7.68 and 8.19 and 6.80 and 9.92 and 8.48 and 11.58 and 8.75 and 8.73, the “Severity of Liver Fibrosis Based on ELF Test” value (ALMS patients [2]; [9]) was “Mod (moderate fibrosis ≥ 7.7 to < 9.8); also recorded: NTM (None to mild fibrosis < 7.7); also recorded: Sev (severe fibrosis ≥ 9.8)” and the “ELF Test score” value (ALMS patients [2]; individual subjects, EP Week 24 (Week 48), 800 mg daily oral) was 10.30 and 8.00 and 6.98 and 7.45 and 6.95 and 8.36 and 11.14 and 8.76 and 8.74.
